For one series, the system named is human BCR-ABL+K562 cells. The series is described as follows: NIL treatment of K562 cells: miR-126 staining. To be noted: K562 cells with and without 5 μM NIL. It is filed as cell-based. How it is done:
K562, HUVEC, normal and CML CD34+CD38− cells were cultured and incubated with miR126 SmartFlare RNA probe (EMD Millipore) for 16 h. […] Cells were then washed in 1× phosphate buffered saline (PBS) and fixed in 4% paraformaldehyde for 3 min. Nuclei were counterstained with DAPI and the images were analyzed using a confocal microscope (Carl Zeiss).

The test system of the next series is CML LT-HSCs. Nature of the series: NIL treatment of miR-126flox/wt/Tie2+ or Tie2− mice transplanted with CML LT-HSCs. Format: in vivo, mouse. As to conditions: NIL 50 mg/kg daily oral gavage for 3 weeks. How it is done:
Next, we sorted CML LT-HSCs from induced CD45.1/CD45.2 SCLtTA/BCR-ABL mice and transplanted them into CD45.2 miR-126^flox/wt/Tie2+ (heterozygous miR-126 KO allele in ECs) or Tie2− (WT miR-126 allele in ECs) mice. After confirming CML development, we treated the mice with NIL (50 mg/kg, daily by oral gavage) or vehicle for 3 weeks.
Animal studies. Inducible transgenic SCLtTA/BCR-ABL mice in the FVB/N background^37,38 were backcrossed to the B6 background (CD45.2) for 10 generations. Transgenic BCR-ABL mice were maintained on tetracycline water at 0.5 g/L. Withdrawal of tetracycline results in expression of BCR-ABL and generation of a CML-like disease in these mice^37,38. Unless otherwise indicated, BCR-ABL expression was induced for 2-3 weeks by tetracycline withdrawal in 6-8 weeks old male and female mice and then BM cells (from both tibias and femurs) were collected for experiments. SCLtTA/BCR-ABL mice (CD45.2, B6) were also bred with CD45.1 B6 mice to produce CD45.1/CD45.2 SCLtTA/BCR-ABL mice as donors. miR-126^flox/flox mice (B6, from Dr. Kuo, Stanford) were crossed with Mx1-cre, Tie2-cre (both from The Jackson Laboratory) and SCLtTA/BCR-ABL mice (all B6) to obtain the following strains: miR-126^flox/flox/Mx1-cre, SCLtTA/BCR-ABL/miR-126^flox/flox/Mx1-cre, miR-126^flox/wt/Tie2-cre and miR-126^flox/flox/Tie2-cre. […]

In a further series the test system is CML CD34+ cells. Nature of the series: MAPK/ERK, BCL-2 and apoptosis in NIL-treated CML CD34+ cells. It is filed as cell-based, human. How it is done:
After transduction performed as above, GFP+ cells selected at 48 h were exposed to NIL (2 μM and 5 μM, Novartis) for another 72 h, and analyzed using assays for cell growth, apoptosis, cell cycle, CFC and CFC replating. […] Cell growth was measured by Lumino Glo (Promega). Apoptosis was measured by labeling cells with Annexin V-PE or FITC or APC and 4, 6-diamidino-2-phenylindole (DAPI) (all from BD-PharMingen, San Diego, Calif.) and analyzed by flow cytometry. […] Cells were also exposed to EdU (C10640, Invitrogen) for 2 h and EdU staining was analyzed according to the manufacturer's protocol. Cell proliferation was also measured by CFSE staining (Molecular probes) based on the manufacturer's protocol. For CFC, Lin-CD34+CD38− cells cultured with or without NIL (5 μM) were plated in methylcellulose progenitor culture, and burst-forming unit-erythroid and colony-forming unit-granulocyte and macrophage cells were counted after 14 days. Colony replating assays were performed by collecting and pooling colonies from primary CFC assays and plating 10,000 cells in secondary CFC assays.
(§1) Proteins were resolved on 10% sodium dodecyl sulfate-polyacrylamide gel electrophoresis (SDS-PAGE) gels and transferred to nitrocellulose membrane. Membranes were sequentially reprobed with primary and secondary antibodies. […] Horseradish peroxidase-conjugated secondary antibodies were from Jackson ImmunoResearch Laboratories (Westgrove, Pa.). Antibody detection was performed using the Superfemto kit (Pierce Biotechnology, Rockford, Ill.). Protein levels were determined by densitometry using Image-Quant software (Amersham Pharmacia Biotech, Piscataway, N.J.).

Series [1] deals with BCR-ABL+ primary CD34+ and/or K562 cells. Format: cell-based, human. How it is done:
Nuclei were counterstained with DAPI.
as §1

The test system of the next series is human CML HSCs. The series is described as follows: NIL treatment of human CML HSCs: miR-126, PIK3R2, SPRED1 expression and cell cycle. Format: cell-based. How it is done: After transduction performed as above, GFP+ cells selected at 48 h were exposed to NIL (2 μM and 5 μM, Novartis) for another 72 h, and analyzed using assays for cell growth, apoptosis, cell cycle, CFC and CFC replating. Human HSCs and mouse LT-HSCs were also treated with CpG-miR-126 inhibitor or CpG-scrRNA (500 nM), with or without NIL (5 μM), for 72 h and analyzed for cell growth, apoptosis, cell cycle and CFC. Human CML HSCs co-cultured with control or miR-126 KD HUVECs and mouse CML LT-HSCs co-cultured with control or miR-126 KD ECs for 96 h, with or without NIL (5 μM), were also analyzed for cell growth, apoptosis, cell cycle and CFC. Cell growth was measured by Lumino Glo (Promega). Apoptosis was measured by labeling cells with Annexin V-PE or FITC or APC and 4, 6-diamidino-2-phenylindole (DAPI) (all from BD-PharMingen, San Diego, Calif.) and analyzed by flow cytometry. Cell cycle was analyzed by Ki-67-Alexa Fluor 647 (B56, BD) and DAPI labeling based on the manufacturer's protocol. Cells were also exposed to EdU (C10640, Invitrogen) for 2 h and EdU staining was analyzed according to the manufacturer's protocol. Cell proliferation was also measured by CFSE staining (Molecular probes) based on the manufacturer's protocol. For CFC, Lin-CD34+CD38− cells cultured with or without NIL (5 μM) were plated in methylcellulose progenitor culture, and burst-forming unit-erythroid and colony-forming unit-granulocyte and macrophage cells were counted after 14 days. […]
To measure the miRNA and mRNA expression, total RNA was extracted using the miRNeasy Mini Kit (Qiagen, Valencia, Calif.). […] BCR-ABL expression in human and mouse samples were measured with primer and probe sequences for BCR-ABL (B3A2 or B2A2), as previously described^46. […]
K562, HUVEC, normal and CML CD34+CD38− cells were cultured and incubated with miR126 SmartFlare RNA probe (EMD Millipore) for 16 h. […] Nuclei were counterstained with DAPI and the images were analyzed using a confocal microscope (Carl Zeiss).

The test system of another series is CML LSCs. Nature of the series: In vivo treatment of CML mice (SCLtTA/BCR-ABL BM cells transplanted into congenic B6 mice). Details: species or system mouse. As to conditions: CML mice, 3 weeks of treatment, followed 60 days after treatment discontinuation. How it is done: Next, we transplanted BM cells from SCLtTA/BCR-ABL mice (CD45.2) into congenic B6 mice (CD45.1). Following confirmation of CML development at 4 weeks after transplantation, mice were treated as above with scrRNA, inhibitor, scrRNA+NIL, or inhibitor+NIL for 3 weeks.

Where [2] appears, read: CML CD34+ cells, NIL treatment, western blot.

Regarding `Cc1cn(-c2cc(NC(=O)c3ccc(C)c(Nc4nccc(-c5cccnc5)n4)c3)cc(C(F)(F)F)c2)cn1` [NIL, nilotinib], the miR-126 expression entry in the series with human BCR-ABL+K562 cells is recorded as “increased”. Further, the “day of 50 percent survival” value with CML LT-HSCs (Tie2− mice (WT miR-126 in ECs) transplanted with CML LT-HSCs, untreated Tie2− approx. day 60) was approximately 150 days. In addition, in the series with CML LT-HSCs (miR-126flox/wt/Tie2+ mice (heterozygous miR-126 KO in ECs) transplanted with CML LT-HSCs), the “survival at day 150” value is given as “all NIL-treated Tie2+ mice were alive”. Besides, in the series with CML CD34+ cells (CML CD34+ cells, NIL treatment), the cell survival entry is recorded as “promoted survival”. In addition, in the series on CML CD34+ cells (setting [2]), the BCL-2 expression result is “increased” and the MAPK/ERK activation result is reported as “enhanced”. Further, in series [1], the SPRED1 phosphorylation result was “de-phosphorylation”; the “binding and co-localization of SPRED1 with RAN” value is “decreased”; the “formation of RAN/Exp-5/RCC1 complex” value is listed as “increased”; the “mature miR-126 levels” value is “increased”. Moreover, in series [1], the “pri- and pre-miR-126 levels” value is given as “decreased”; the “ratio of pri- and pre-miR-126 to mature miR-126 levels” value is given as “decreased”. For the same molecule, the “fraction of quiescent cells” value with human CML HSCs (human CML HSCs, 5 μM NIL vs DMSO, cell cycle analysis) was “increased”. Also, the SPRED1 levels entry in the series with human CML HSCs (human CML Lin-CD34+CD38− cells treated with NIL, compared with vehicle alone, QPCR) is “decreased”. The miR-126 expression result with human CML HSCs (human CML Lin-CD34+CD38− cells, NIL 2 μM or 5 μM, compared with vehicle alone, QPCR and miRNA staining) is “increased”.
`O=C(NOC[C@H](O)CO)c1ccc(F)c(F)c1Nc1ccc(I)cc1F` [PD0325901]: in the series on CML CD34+ cells (CML Lin-CD34+ cells, PD0325901 500 nM in combination with NIL, 72 h), the NIL-induced apoptosis entry is listed as “enhanced”.
“5′ G*G*T GCA TCG ATG CAGG*G*G* G*G xxxxx mGmUmA mGmAmA mCmCmG mUmAmC mUmCmG mUmCmA mCmUmU mA 3′ (GGTGCATCGATGCAGGGGGGGUAGAACCGUACUCGUCACUUA; phosphorothioate, 2'-O-methyl, linker; (1)..(2) phosphorothioation; (2)..(3) phosphorothioation; (16)..(17) phosphorothioation; (17)..(18) phosphorothioation; (18)..(19) phosphorothioation; (19)..(20) phosphorothioation; (20)..(21) ((CH2)3)5; (20)..(21) Five C3 carbon chain linkers, ((CH2)3)5; modified_base (21)..(21) gm; modified_base (22)..(22) um; modified_base (23)..(23) 2′-O-Methyladenosine; modified_base (24)..(24) gm; modified_b) [scrRNA, CpG ODN linked to scrambled RNA, control oligonucleotide]”: the mice that survived result with CML LSCs is on record as “all of the mice treated with scrRNA alone died of leukemia”.

The values above are taken from patent US11801266B2, “Methods of using anti-MIR126 compounds” (CITY OF HOPE, priority 2019, dated 2023).
